Data reported in patent US6664231B1, “Anti-fungal peptides” (priority 1993, dated 2003).
Values joined by “and” are separate entries in the source; they are usually repeats but may differ in a detail not shown here. Identical values can stand only once. Like-named read-outs stand apart in the source and are kept apart here. Square brackets hold non-standard residues; d marks the D form. Ends that are not written are not given here. Peptide text beside a SMILES is read from it. d2Nal = N[C@H](Cc1ccc2ccccc2c1)C(=O)O; Dab = NCC[C@H](N)C(=O)O

Assays:
[1] = tested on: mouse RAW 264.7 cells
Method: (§1) An in vitro LPS neutralization screening assay for evaluation of Domain III derived peptides was developed (as described in co-owned and co-pending U.S. patent application Ser. No. 08/306,473) which provides both a measure of efficacy of each peptide (EC50) and of the toxicity/growth inhibition of each peptide (IC50).
(§2) The cells were counted and their concentration adjusted to 2×10^5 cells/mL and 100 μL aliquots were added to each well of a 96-well microtitre plate. […] This incubation was performed in the absence or presence of peptides in varying concentrations between 25 ng/mL and 50 μg/mL. […] Cell proliferation was quantitatively measured by the addition of 1 μCi/well [^3H]-thymidine 5 hours after the time of initiation of the assay. After the 15-hour incubation, labeled cells were harvested onto glass fiber filters with a cell harvester (Inotech Biosystems, INB-384, Sample Processing and Filter Counting System, Lansing, Mich.).

[2] = tested on: mouse RAW 264.7 cells incubated with E. coli O113 LPS; settings: RAW 264.7 cells with E. coli O113 LPS; concentration reversing LPS growth inhibition by 50%
Method: as §1, §2

[3] = tested on: C. albicans (CA-1, Strain SLU-1); test: Radial diffusion assay; format: cell-based, Candida albicans; settings: for Plate Assay (nmol), pure peptide activity: HPLC-purified peptide; for Plate Assay (nmol), pure peptide activity / Plate Assay (nmol), crude peptide activity: nanomoles required to achieve a net 30 mm^2 zone (log titration curve); for C. albicans pmol/30 mm^2 zone: pmoles of peptide added to well to achieve a 30 mm^2 zone, PROBIT analysis, crude or purified (P′) peptide
How it was run: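 Peptides, serially diluted 2-fold in D-PBS (top ~1 mg/mL), diffused 3 h at 37° C into pH 7.4 phosphate-buffered agarose seeded with 1×10^6 CFU/mL yeast, before overnight growth under a 6% Sabouraud overlayer. Net inhibition zones measured after Coomassie staining; PROBIT fit of log pmol vs area gave pmol for 30 mm^2.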

[4] = RAW 264.7 cell growth inhibited by 50%

Row | Compound | IC50 (toxicity/growth inhibition of peptide) [1, 4] | In Vitro LPS Neutralization EC50 [2] | also measured
1 | CC[C@H](C)[C@H](NC(=O)[C@H](CC(C)C)NC(=O)[C@H](Cc1c[nH]c2ccccc12)NC(=O)[C@H](CCCN)NC(=O)[C@@H](N)CCCN)C(=O)N[C@@H](CCC(N)=O)C(=O)N[C@@H](CC(C)C)C(=O)N[C@@H](CCCN)C(=O)N[C@@H](CCCN)C(N)=O [XMP 338] | NA (NA for IC50 means no evidence of decreased RAW cell growth at up to 50 μg/ml) | >25 µg/mL | 
2 | GWLIQLFHKK-NH2 [XMP.388P] | NA (NA for IC50 means no evidence of decreased RAW cell growth at up to 50 μg/ml) | 8.08 ± 1.52 µg/mL | 
3 | PWAIQLFHKK-NH2 (C-terminus assumed) [XMP.387P] | NA (NA for IC50 means no evidence of decreased RAW cell growth at up to 50 μg/ml) | 15.53 ± 2.18 µg/mL | 
4 | H-KPWLIQLFHKK-NH2 [XMP.390P] | NA (NA for IC50 means no evidence of decreased RAW cell growth at up to 50 μg/ml) | 3.97 ± 0.21 µg/mL | 
5 | H-KKQLLLLKK-NH2 [XMP.380P] | NA (NA for IC50 means no evidence of decreased RAW cell growth at up to 50 μg/ml) | NA (NA for EC50 means no evidence neutralization of LPS at up to 50 μg/ml) | 
6 | CC[C@H](C)[C@H](NC(=O)[C@H](CC(C)C)NC(=O)[C@@H](Cc1ccc2ccccc2c1)NC(=O)[C@H](CCCCN)NC(=O)[C@@H](N)CCCCN)C(=O)N[C@@H](CC(C)C)C(=O)N[C@@H](CC(C)C)C(=O)N[C@@H](CCCCN)C(=O)N[C@@H](CCCCN)C(N)=O [XMP.347P] (H-KK[d2Nal]LILLKK-NH2) |  | 1.65 ± 0.09 µg/mL | IC50 (toxicity/growth inhibition of peptide) [1]: >25 µg/mL
7 | CC[C@@H](C)[C@@H](NC(=O)[C@@H](C)NC(=O)[C@@H](Cc1c[nH]c2ccccc12)NC(=O)[C@@H](CCCCN)NC(=O)[C@H](N)CCCCN)C(=O)N[C@H](CCC(N)=O)C(=O)N[C@H](CC(C)C)C(=O)N[C@H](CCCCN)C(=O)N[C@H](CCCCN)C(N)=O [XMP.375P] (H-[dK][dK][dW][dA][dI][dQ][dL][dK][dK]-NH2) | NA (NA for IC50 means no evidence of decreased RAW cell growth at up to 50 μg/ml) | >50 µg/mL | 
8 | H-RRWLIQLRR-NH2 [XMP.336P] | NA (NA for IC50 means no evidence of decreased RAW cell growth at up to 50 μg/ml) | NA (NA for EC50 means no evidence neutralization of LPS at up to 50 μg/ml) | 
9 | KKWLIQLFKK-NH2 [XMP.351P] | NA (NA for IC50 means no evidence of decreased RAW cell growth at up to 50 μg/ml) | 8.47 ± 0.71 µg/mL | 
10 | KKLLLLQKK-NH2 [XMP.384P] | NA (NA for IC50 means no evidence of decreased RAW cell growth at up to 50 μg/ml) | NA (NA for EC50 means no evidence neutralization of LPS at up to 50 μg/ml) | 
11 | CC[C@H](C)[C@H](NC(=O)[C@H](CC(C)C)NC(=O)[C@H](Cc1c[nH]c2ccccc12)NC(=O)[C@@H](N)CCCCN)C(=O)N[C@@H](CCN)C(=O)N[C@@H](CC(C)C)C(=O)N[C@@H](Cc1ccccc1)C(=O)N[C@@H](Cc1c[nH]cn1)C(=O)N[C@@H](CCCCN)C(=O)N[C@@H](CCCCN)C(N)=O [XMP.371P] (H-KWLI[Dab]LFHKK-NH2) |  | NA (NA for EC50 means no evidence neutralization of LPS at up to 50 μg/ml) | IC50 (toxicity/growth inhibition of peptide) [1]: >25 µg/mL
12 | CC[C@H](C)[C@H](NC(=O)[C@H](CC(C)C)NC(=O)[C@H](Cc1c[nH]c2ccccc12)NC(=O)[C@H](CCCCN)NC(C)=O)C(=O)N[C@@H](CCN)C(=O)N[C@@H](CC(C)C)C(=O)N[C@@H](Cc1ccccc1)C(=O)N[C@@H](Cc1c[nH]cn1)C(=O)N[C@@H](CCCCN)C(=O)N[C@@H](CCCCN)C(N)=O [XMP.372P] (Ac-KWLI[Dab]LFHKK-NH2) |  | >25 µg/mL | IC50 (toxicity/growth inhibition of peptide) [1]: >25 µg/mL
13 | H-KSKVPWLIQLFHKK-NH2 [XMP.393P] | NA (NA for IC50 means no evidence of decreased RAW cell growth at up to 50 μg/ml) | >25 µg/mL | 
14 | H-KKLQLLLKK-NH2 [XMP.381P] | NA (NA for IC50 means no evidence of decreased RAW cell growth at up to 50 μg/ml) | NA (NA for EC50 means no evidence neutralization of LPS at up to 50 μg/ml) | 
15 | H-KVKWLIQLFHK-NH2 [XMP.288P] |  | 0.87 ± 0.06 µg/mL | IC50 (toxicity/growth inhibition of peptide) [1]: >25 µg/mL
16 | CCCCCCCC(=O)N[C@H](CCCCN)C(=O)N[C@H](Cc1c[nH]c2ccccc12)C(=O)N[C@H](CC(C)C)C(=O)N[C@@H](C(=O)N[C@H](CCC(N)=O)C(=O)N[C@H](CC(C)C)C(=O)N[C@H](Cc1ccccc1)C(=O)N[C@H](Cc1c[nH]cn1)C(=O)N[C@H](CCCCN)C(=O)N[C@H](CCCCN)C(N)=O)[C@H](C)CC [XMP.414] | 10.96 ± 0.52 µg/mL | 1.91 ± 0.04 µg/mL | 
17 | H-SKVKWLIQLFHKK-NH2 [XMP.284P] |  | 4.72 ± 0.08/ μg/ml and 3.57 ± 0.09 μg/ml | 
18 | CC[C@@H](C)[C@@H](NC(=O)[C@@H](CCC(N)=O)NC(=O)[C@@H](CC(C)C)NC(=O)[C@@H](Cc1ccccc1)NC(=O)[C@@H](Cc1c[nH]cn1)NC(=O)[C@@H](CCCCN)NC(=O)[C@@H](CCCCN)NC(C)=O)C(=O)N[C@H](CC(C)C)C(=O)N[C@H](Cc1c[nH]c2ccccc12)C(=O)N[C@H](CCCCN)C(N)=O [XMP.368P] |  | 1.95 ± 0.11 µg/mL | IC50 (toxicity/growth inhibition of peptide) [1]: >25 µg/mL
19 | CC[C@H](C)[C@H](NC(=O)[C@H](CC(C)C)NC(=O)[C@@H](Cc1c[nH]c2ccccc12)NC(=O)[C@@H](CCCCN)NC(C)=O)C(=O)N[C@@H](CCC(N)=O)C(=O)N[C@@H](CC(C)C)C(=O)N[C@@H](Cc1ccccc1)C(=O)N[C@@H](Cc1c[nH]cn1)C(=O)N[C@H](CCCCN)C(=O)N[C@H](CCCCN)C(N)=O [XMP.364P] | NA (NA for IC50 means no evidence of decreased RAW cell growth at up to 50 μg/ml) | >25 µg/mL | 
20 | CC[C@H](C)[C@H](NC(=O)[C@H](CC(C)C)NC(=O)[C@H](Cc1c[nH]c2ccccc12)NC(=O)[C@@H](N)CCCCN)C(=O)N[C@@H](CCC(N)=O)C(=O)N[C@@H](CC(C)C)C(=O)N[C@@H](Cc1ccccc1)C(=O)N[C@@H](Cc1c[nH]cn1)C(=O)N[C@@H](CCCCN)C(N)=O [Peptide 297] |  |  | Plate Assay (nmol), pure peptide activity [3]: 0.564 nmol; Plate Assay (nmol), crude peptide activity [3]: 1.817 nmol
21 | CC[C@H](C)[C@H](NC(=O)[C@H](CC(C)C)NC(=O)[C@H](Cc1c[nH]c2ccccc12)NC(=O)[C@H](Cc1ccc(N)cc1)NC(=O)[C@@H](NC(=O)[C@H](CCCCN)NC(=O)[C@H](CO)NC(=O)[C@@H](N)CCCCN)C(C)C)C(=O)N[C@@H](CCC(N)=O)C(=O)N[C@@H](CC(C)C)C(=O)N[C@@H](Cc1ccccc1)C(=O)N[C@@H](Cc1c[nH]cn1)C(=O)N[C@@H](CCCCN)C(=O)N[C@@H](Cc1cccc2ccccc12)C(N)=O [XMP.229] |  |  | C. albicans pmol/30 mm^2 zone [3]: b (No detectable activity up to 5 μg/well)
22 | H-LIQLFHKK-NH2 [XMP.304] |  |  | C. albicans pmol/30 mm^2 zone [3]: >8,290 pmol/30 mm^2 zone
23 | H-KSKVGWLIQAFHKK-NH2 [XMP.40] |  |  | C. albicans pmol/30 mm^2 zone [3]: 253 pmol/30 mm^2 zone
24 | CC[C@H](C)[C@H](NC(=O)[C@H](CC(C)C)NC(=O)[C@@H](N)Cc1c[nH]c2ccccc12)C(=O)N[C@@H](CCC(N)=O)C(=O)N[C@@H](CC(C)C)C(=O)N[C@@H](Cc1ccccc1)C(=O)N[C@@H](Cc1c[nH]cn1)C(=O)N[C@@H](CCCCN)C(N)=O [Peptide 303] |  |  | Plate Assay (nmol), pure peptide activity [3]: 1.306 nmol; Plate Assay (nmol), crude peptide activity [3]: >4.694 nmol
25 | CC[C@H](C)[C@H](NC(=O)[C@H](CC(C)C)NC(=O)[C@@H](Cc1ccc2ccccc2c1)NC(=O)CNC(=O)[C@@H](NC(=O)[C@H](CCCCN)NC(=O)[C@H](CO)NC(=O)[C@@H](N)CCCCN)C(C)C)C(=O)N[C@@H](CC(C)C)C(=O)N[C@@H](CC(C)C)C(=O)N[C@@H](Cc1ccccc1)C(=O)N[C@@H](Cc1c[nH]cn1)C(=O)N[C@@H](CCCCN)C(=O)N[C@@H](CCCCN)C(N)=O [XMP.242] (H-KSKVG[d2Nal]LILLFHKK-NH2) |  |  | C. albicans pmol/30 mm^2 zone [3]: 359 pmol/30 mm^2 zone
26 | H-VKWLIQLF-NH2 [XMP.301] |  |  | C. albicans pmol/30 mm^2 zone [3]: b (No detectable activity up to 5 μg/well)
27 | H-KSKVGWLILLFHKKKSKVGWLIQLFHKK-NH2 [XMP.270] |  |  | C. albicans pmol/30 mm^2 zone [3]: >722 pmol/30 mm^2 zone
